The values below come from BindingDB's records for doi:10.1016/s0960-894x(01)00039-7 (Glaxosmithkline, 2001).

The target in this assay is Tyrosine--tRNA ligase (Staphylococcus aureus). As to the kind of experiment: Inhibitory activity against Staphylococcus aureus tyrosyl tRNA synthetase (YRS) using aminoacylation assay.

Consider `N[C@@H](Cc1ccc(O)cc1)C(=O)N[C@@H](C(=O)O)[C@@H]1OC[C@H](O)[C@H](O)[C@H]1O` [[2-Amino-3-((S)-4-hydroxy-phenyl)-propionylamino]-((2S,3R,4S,5S)-3,4,5-trihydroxy-tetrahydro-pyran-2-yl)-acetic acid], for which the IC50 (in general, the midpoint of a concentration-inhibition curve) was 260 nM.
